Laboratory results taken from the supplement of paper PMC10307832.

Experiments:
Assay in all cases: relative viability (nuclei count vs DMSO), 5 days (fraction); higher = more cells survive
[1] = compound: O=c1[nH]cc(F)c(=O)[nH]1 [5-Fluorouracil] + CS(=O)(=O)N1CCN(Cc2cc3nc(-c4cccc5[nH]ncc45)nc(N4CCOCC4)c3s2)CC1 [Pictilisib] (partner 1 µM)
Method in brief: (§1)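 Relative viability divides the nuclei count in treated wells by that in vehicle wells. Lung cancer cell lines were seeded in 1536-well plates, dosed by pin tool the next day, and fixed and stained after 5 days in one step with final 0.05% Triton X-100, 1% formaldehyde and 1 ug/ml Hoechst. Dosing was a single drug or a fixed anchor-drug dose plus five library-drug doses (not always all listed) in √10 steps, and values are medians of duplicate plates imaged at 4×.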

[2] = compound: O=c1[nH]cc(F)c(=O)[nH]1 [5-Fluorouracil] + COc1cc2c(Oc3ccc(NC(=O)C4(C(=O)Nc5ccc(F)cc5)CC4)cc3F)ccnc2cc1OCCCN1CCOCC1 [Foretinib] (partner 0.25 µM)
Method in brief: as §1

Staurosporine + OSI-027 = compound: CN[C@@H]1C[C@H]2O[C@@](C)([C@@H]1OC)n1c3ccccc3c3c4c(c5c6ccccc6n2c5c31)C(=O)NC4 [Staurosporine] + COc1cccc2cc(-c3nc([C@H]4CC[C@H](C(=O)O)CC4)n4ncnc(N)c34)[nH]c12 [OSI-027] (partner 0.5 µM)
Method in brief: as §1

[3] = compound: O=c1[nH]cc(F)c(=O)[nH]1 [5-Fluorouracil] + CC(=O)c1c(C)c2cnc(Nc3ccc(N4CCNCC4)cn3)nc2n(C2CCCC2)c1=O [Palbociclib] (partner 0.5 µM)
Method in brief: as §1

Cell Line: NCI-H460
- relative viability ([1]; first compound 0.02 µM): 0.443
- relative viability ([1]; first compound 0.2 µM): 0.384
- relative viability ([1]; first compound 0.6325 µM): 0.155
- relative viability ([1]; first compound 2 µM): 0.0868
- relative viability ([2]; first compound 0.02 µM): 1.02
- relative viability ([2]; first compound 0.2 µM): 0.73
- relative viability ([2]; first compound 0.6325 µM): 0.156
- relative viability ([2]; first compound 2 µM): 0.0731
- relative viability (Staurosporine + OSI-027; first compound 0.005 µM): 0.47
- relative viability (Staurosporine + OSI-027; first compound 0.01581 µM): 0.303
- relative viability (Staurosporine + OSI-027; first compound 0.05 µM): 0.329
- relative viability (Staurosporine + OSI-027; first compound 0.1581 µM): 0.0118
- relative viability (Staurosporine + OSI-027; first compound 0.5 µM): 0.006
- relative viability ([3]; first compound 0.02 µM): 0.236
- relative viability ([3]; first compound 0.2 µM): 0.167
- relative viability ([3]; first compound 0.6325 µM): 0.046
- relative viability ([3]; first compound 2 µM): 0.045

Cell Line: NCI-H520
- relative viability ([1]; first compound 0.02 µM): 0.316
- relative viability ([1]; first compound 0.2 µM): 0.272
- relative viability ([1]; first compound 0.6325 µM): 0.271
- relative viability ([1]; first compound 2 µM): 0.232
- relative viability ([2]; first compound 0.02 µM): 0.555
- relative viability ([2]; first compound 0.2 µM): 0.697
- relative viability ([2]; first compound 0.6325 µM): 0.641
- relative viability ([2]; first compound 2 µM): 0.563
- relative viability (Staurosporine + OSI-027; first compound 0.005 µM): 0.294
- relative viability (Staurosporine + OSI-027; first compound 0.01581 µM): 0.319
- relative viability (Staurosporine + OSI-027; first compound 0.05 µM): 0.274
- relative viability (Staurosporine + OSI-027; first compound 0.1581 µM): 0.268
- relative viability (Staurosporine + OSI-027; first compound 0.5 µM): 0.141
- relative viability ([3]; first compound 0.02 µM): 0.177
- relative viability ([3]; first compound 0.2 µM): 0.271
- relative viability ([3]; first compound 0.6325 µM): 0.218
- relative viability ([3]; first compound 2 µM): 0.167

Cell Line: NCI-H647
- relative viability ([1]; first compound 0.02 µM): 0.473
- relative viability ([1]; first compound 0.2 µM): 0.483
- relative viability ([1]; first compound 0.6325 µM): 0.429
- relative viability ([1]; first compound 2 µM): 0.401
- relative viability ([2]; first compound 0.02 µM): 1.25
- relative viability ([2]; first compound 0.2 µM): 1.32
- relative viability ([2]; first compound 0.6325 µM): 0.997
- relative viability ([2]; first compound 2 µM): 0.796
- relative viability (Staurosporine + OSI-027; first compound 0.005 µM): 0.29
- relative viability (Staurosporine + OSI-027; first compound 0.01581 µM): 0.123
- relative viability (Staurosporine + OSI-027; first compound 0.05 µM): 0.149
- relative viability (Staurosporine + OSI-027; first compound 0.1581 µM): 0.0899
- relative viability (Staurosporine + OSI-027; first compound 0.5 µM): 0.0651
- relative viability ([3]; first compound 0.02 µM): 0.343
- relative viability ([3]; first compound 0.2 µM): 0.516
- relative viability ([3]; first compound 0.6325 µM): 0.308
- relative viability ([3]; first compound 2 µM): 0.358

Cell Line: NCI-H650
- relative viability ([1]; first compound 0.02 µM): 0.823
- relative viability ([1]; first compound 0.2 µM): 0.674
- relative viability ([1]; first compound 0.6325 µM): 0.45
- relative viability ([1]; first compound 2 µM): 0.387
- relative viability ([2]; first compound 0.02 µM): 0.976
- relative viability ([2]; first compound 0.2 µM): 0.617
- relative viability ([2]; first compound 0.6325 µM): 0.356
- relative viability ([2]; first compound 2 µM): 0.308
- relative viability (Staurosporine + OSI-027; first compound 0.005 µM): 0.34
- relative viability (Staurosporine + OSI-027; first compound 0.01581 µM): 0.271
- relative viability (Staurosporine + OSI-027; first compound 0.05 µM): 0.257
- relative viability (Staurosporine + OSI-027; first compound 0.1581 µM): 0.277
- relative viability (Staurosporine + OSI-027; first compound 0.5 µM): 0.255
- relative viability ([3]; first compound 0.02 µM): 0.316
- relative viability ([3]; first compound 0.2 µM): 0.278
- relative viability ([3]; first compound 0.6325 µM): 0.244
- relative viability ([3]; first compound 2 µM): 0.263

Cell Line: NCI-H661
- relative viability ([1]; first compound 0.02 µM): 0.35
- relative viability ([1]; first compound 0.2 µM): 0.469
- relative viability ([1]; first compound 0.6325 µM): 0.376
- relative viability ([1]; first compound 2 µM): 0.433
- relative viability ([2]; first compound 0.02 µM): 1.03
- relative viability ([2]; first compound 0.6325 µM): 1.02
- relative viability ([2]; first compound 2 µM): 0.972
- relative viability (Staurosporine + OSI-027; first compound 0.005 µM): 0.641
- relative viability (Staurosporine + OSI-027; first compound 0.01581 µM): 0.413
- relative viability (Staurosporine + OSI-027; first compound 0.05 µM): 0.346
- relative viability (Staurosporine + OSI-027; first compound 0.1581 µM): 0.201
- relative viability (Staurosporine + OSI-027; first compound 0.5 µM): 0.166
- relative viability ([3]; first compound 0.02 µM): 0.407
- relative viability ([3]; first compound 0.2 µM): 0.436
- relative viability ([3]; first compound 0.6325 µM): 0.425
- relative viability ([3]; first compound 2 µM): 0.419

Cell Line: NCI-H727
- relative viability ([1]; first compound 0.02 µM): 0.395
- relative viability ([1]; first compound 0.2 µM): 0.464
- relative viability ([1]; first compound 0.6325 µM): 0.369
- relative viability ([1]; first compound 2 µM): 0.305
- relative viability ([2]; first compound 0.02 µM): 0.791
- relative viability ([2]; first compound 0.2 µM): 0.79
- relative viability ([2]; first compound 0.6325 µM): 0.903
- relative viability ([2]; first compound 2 µM): 0.656
- relative viability (Staurosporine + OSI-027; first compound 0.005 µM): 0.422
- relative viability (Staurosporine + OSI-027; first compound 0.01581 µM): 0.289
- relative viability (Staurosporine + OSI-027; first compound 0.05 µM): 0.301
- relative viability (Staurosporine + OSI-027; first compound 0.1581 µM): 0.291
- relative viability (Staurosporine + OSI-027; first compound 0.5 µM): 0.225
- relative viability ([3]; first compound 0.02 µM): 0.839
- relative viability ([3]; first compound 0.2 µM): 0.685
- relative viability ([3]; first compound 0.6325 µM): 0.745
- relative viability ([3]; first compound 2 µM): 0.607

Cell Line: NCI-H838
- relative viability ([1]; first compound 0.02 µM): 0.414
- relative viability ([1]; first compound 0.2 µM): 0.402
- relative viability ([1]; first compound 0.6325 µM): 0.306
- relative viability ([1]; first compound 2 µM): 0.269
- relative viability ([2]; first compound 0.02 µM): 1
- relative viability ([2]; first compound 0.2 µM): 1.06
- relative viability ([2]; first compound 0.6325 µM): 0.523
- relative viability ([2]; first compound 2 µM): 0.317
- relative viability (Staurosporine + OSI-027; first compound 0.005 µM): 0.207
- relative viability (Staurosporine + OSI-027; first compound 0.01581 µM): 0.153
- relative viability (Staurosporine + OSI-027; first compound 0.05 µM): 0.196
- relative viability (Staurosporine + OSI-027; first compound 0.1581 µM): 0.162
- relative viability ([3]; first compound 0.02 µM): 0.196
- relative viability ([3]; first compound 0.2 µM): 0.223
- relative viability ([3]; first compound 0.6325 µM): 0.19
- relative viability ([3]; first compound 2 µM): 0.174

Cell Line: NCI-H1355
- relative viability ([1]; first compound 0.02 µM): 0.482
- relative viability ([1]; first compound 0.2 µM): 0.493
- relative viability ([1]; first compound 0.6325 µM): 0.361
- relative viability ([1]; first compound 2 µM): 0.33
- relative viability ([2]; first compound 0.02 µM): 0.883
- relative viability ([2]; first compound 0.2 µM): 0.681
- relative viability ([2]; first compound 0.6325 µM): 0.338
- relative viability ([2]; first compound 2 µM): 0.256
- relative viability (Staurosporine + OSI-027; first compound 0.005 µM): 0.332
- relative viability (Staurosporine + OSI-027; first compound 0.01581 µM): 0.15
- relative viability (Staurosporine + OSI-027; first compound 0.05 µM): 0.192
- relative viability (Staurosporine + OSI-027; first compound 0.1581 µM): 0.157
- relative viability (Staurosporine + OSI-027; first compound 0.5 µM): 0.143
- relative viability ([3]; first compound 0.02 µM): 0.41
- relative viability ([3]; first compound 0.2 µM): 0.364
- relative viability ([3]; first compound 0.6325 µM): 0.241
- relative viability ([3]; first compound 2 µM): 0.207

Cell Line: NCI-H1395
- relative viability ([1]; first compound 0.02 µM): 0.581
- relative viability ([1]; first compound 0.2 µM): 0.62
- relative viability ([1]; first compound 0.6325 µM): 0.578
- relative viability ([1]; first compound 2 µM): 0.594
- relative viability ([2]; first compound 0.02 µM): 0.827
- relative viability ([2]; first compound 0.2 µM): 1.14
- relative viability ([2]; first compound 0.6325 µM): 1.05
- relative viability ([2]; first compound 2 µM): 0.987
- relative viability (Staurosporine + OSI-027; first compound 0.005 µM): 0.605
- relative viability (Staurosporine + OSI-027; first compound 0.01581 µM): 0.395
- relative viability (Staurosporine + OSI-027; first compound 0.05 µM): 0.42
- relative viability (Staurosporine + OSI-027; first compound 0.1581 µM): 0.249
- relative viability (Staurosporine + OSI-027; first compound 0.5 µM): 0.239
- relative viability ([3]; first compound 0.02 µM): 0.538
- relative viability ([3]; first compound 0.2 µM): 0.692
- relative viability ([3]; first compound 0.6325 µM): 0.641
- relative viability ([3]; first compound 2 µM): 0.609
